Laboratory results from patent US20210251955A1, “PREVENTION OF AGE RELATED CLONAL HEMATOPOIESIS AND DISEASES ASSOCIATED THEREWITH” (Yeda Research and Development Co. Ltd., priority 2018, published 2021).
Entries after “also recorded” stand apart in the source; their conditions may differ.

Columns and labels:
parental K562 cells = assay: IC50 in parental K562 cells; assay type: cell-based; details: Homo sapiens
RBM39 = biological target: T1, RBM39 (Homo sapiens, UniProt Q14498+Q66K64); assay: RBM39 protein levels (Western blot) in isogenic leukemia cell lines; assay type: cell-based
T1 construct: endogenous in cells; host or cells: isogenic K562 / NALM-6 (and TF-1) leukemia cells, wild type or with knock-in of spliceosomal gene mutations
Procedure: (§1) (FIG. 4A) Sulfonamides bridge RBM39 to the CUL4-DDB1-DDA1-DCAF15 E3 ubiquitin ligase complex, leading to polyubiquitination and proteasomal degradation of RBM39. IC50 curves of the sulfonamide E7820 in isogenic (FIG. 4B) K562 and (FIG. 4C) NALM6 WT or mutant for SF3B1. (FIG. 4D) Western blots of RBM39 levels+[…] of the sulfonamides Indusulam or E7820 from the cells in (FIG. 4C).
(§2) FIGS. 5A-D illustrate the preferential response of spliceosomal mutant hematopoietic cells to indisulam. (FIG. 5A) IC50 plots of isogenic K562 (left) and NALM-6 (right) cells to indisulam. These are cell with introduction of a spliceosomal gene mutation into the endogenous locus. (FIG. 5B) Western blots of RBM39 in the K562 cells from (FIG. 5A) at increasing doses of indisulam. (FIG. 5C) Log10 IC50 waterfall plots of response of AML cell lines with naturally occurring mutations in splicing factors to indisulam. Red bars represent cells with naturally occurring mutations in splicing factors. (FIG. 5D) Bar plot of number of differential splicing events across parental, SF3B1^K700E/WT, and SRSF2^P95H/WT K562 cells. The numbers above each bar indicate number of differentially spliced events.
The effects of indisulam and the sulfonamide analogue, E7820, were first examined across a panel of 18 genetically diverse AML cell lines. […]

[1] = test system: isogenic K562, TF-1 and NALM-6 cells expressing mutations in SF3B1, SRSF2, U2AF1; assay: Growth inhibition of isogenic leukemia lines with or without spliceosomal hotspot mutations; assay type: cell-based; details: isogenic K562, TF-1, NALM-6
Procedure: as §1, §2
(§3) The effects of indisulam and the sulfonamide analogue, E7820, were first examined across a panel of 18 genetically diverse AML cell lines.

[2] = test system: K562 cells (parental, SF3B1^K700E, SRSF2^P95H); assay: RNA-sequencing of parental K562 and isogenic SF3B1^K700E and SRSF2^P95H lines, differential splicing; assay type: cell-based; details: for Splicing changes relative to DMSO treatment: at the IC50 of each drug in parental K562 cells, regardless of mutation status
From the text: as §2
Identification and Quantification of Differential Splicing
Isoform ratios for all alternative splicing events were quantified using MISO v2.0. Constitutively spliced exons and introns were quantified using junction-spanning reads. The conditional knockin and knockout mice were compared in a pair-wise manner, and for each pair the analysis was restricted to splicing events with 20 or more reads supporting either or both isoforms, and where the event was alternatively spliced in the sample pair. […] The human AML samples were analyzed by calculating the median isoform ratios across all 28 SRSF2 wildtype samples, and comparing that in a pair-wise manner to each SRSF2 mutant sample, using the same methodology as for the knockin and knockout mice. The Mx1-Cre^+Srsf2^+/+ or Mx1-Cre^+Srsf2^P95H/+E7107-treated mice were compared in a pair-wise manner against the median isoform ratios of their vehicle-treated counterparts, using the same methodology. For the MLL-AF9 AML transformed mice there were sufficient replicates to do a group-based comparison within the Srsf2P95H and wildtype genotypes individually (N=5 for each genotype-treatment combination). E7107- and vehicle-treated mice were compared in a two-sided Wilcoxon rank-sum test, using the total number of isoform reads within each treatment group.
In parallel, RNA-seq was carried out of the same cell lines treated with E7107, a small molecule that inhibits splicing through impeding binding of SF3B1 to the branch point [Finci et al., Genes & Dev. (2018) 32: 309-320].
Thus, both genetic as well pharmacologic degradation of RBM39 disrupts splicing as well as other pathways required for leukemogenicity.

[3] = test system: panel of 18 genetically diverse AML cell lines; assay: Cell viability upon sulfonamide exposure across a panel of 18 AML cell lines; assay type: cell-based
From the text: as §3

[4] = test system: spliceosomal-mutant leukemias; details: PDX, Lee et al. Nat Med (2016); cited from earlier work
spliceosomal-mutant AML = details: Lee et al. Nat Med (2016); cited from earlier work
[5] = test system: Srsf2^P95H/WT MLL-AF9 AML cells; assay: In vitro viability (MTS) of isogenic murine MLL-AF9 AML cells, Srsf2 WT vs Srsf2 mutant; assay type: cell-based
From the text: FIGS. 1A-E illustrate the effects of PRMT inhibition on splicing. (FIG. 1A) Diagram of the role of PRMT5 and the type I PRMTs in splicing regulation. PRMTs methylate arginines on splicing proteins to promote spliceosome assembly and are required for proper splicing function. IC50 curves of spliceosomal mutant acute myeloid leukemia cells or their WT counterparts exposed to (FIG. 1B) the PRMT5 inhibitor GSK591 or (FIG. 1C) the PRMT1 inhibitor MS-023. Western blots of (FIG. 1D) symmetric dimethyl arginine (SDMA) or (FIG. 1E) asymmetric dimethyl arginine (ADMA) from the cells in (FIG. 1B) and […] respectively.
FIG. 2 illustrates drug sensitivity of AML cells with SMMs or partial loss of PRMT5 to inhibitors of splicing, PRMTs, or LSD1. MLL-AF9 Srsf2^WT/WT; MLL-AF9 Srsf2^P95H/WT or MLL-AF9 Prmt5^+/− cells were treated for 7 days with the indicated compounds in 384 wells (5 increasing concentrations per compound). Viability at day 7 was scored by MTS assay and reported as the ratio over control treated cells (with equivalent dilution of DMSO). The experiment was conducted in biological triplicate, and each individual run was repeated in technical triplicate. […]
Of note, the SF3B1 inhibitor, E7107, was used in the same assays as a positive control. […] Viability at day 7 was scored by MTS assay and reported as the ratio over control treated cells (with equivalent dilution of DMSO). […]

[6] = test system: SF3B1 as well as SRSF2-mutant AML and chronic myelomonocytic leukemia (CMML); details: Seiler et al., Nature Medicine (2018); cited from earlier work

Question: For `Cc1ccc(NS(=O)(=O)c2cccc(C#N)c2)c2[nH]cc(C#N)c12` [E7820], which IC50 (parental K562 cells) is on record?
Answer: 1 µM

Question: What about the “Degradation of RBM39” value (RBM39) of the same compound?
Answer: dose-dependent degradation of RBM39

Question: And the “Preferential sensitivity of spliceosomal mutant cells to growth inhibition over wild-type” value [1]?
Answer: preferentially sensitive

Question: What about the “Differential splicing events in SF3B1^K700E cells versus SF3B1 wild-type” value ([2]; 1 μM E7820) of the same compound?
Answer: greater number of differential splicing events

Question: And the “Splicing of SUPT6H, hnRNPH and SRSF10 mRNAs” value ([2]; E7820 exposure)?
Answer: intron retention that was most pronounced in spliceosomal mutant cells

Question: What about the “Splicing changes relative to DMSO treatment” value [2] of the same compound?
Answer: increased cassette exon skipping and intron retention

Question: What about the “Changes in splicing, E7820 versus E7107” value ([2]; equipotent non-toxic doses, within each cell type and splicing category) of the same compound?
Answer: greater changes in splicing

Question: What about the “Sensitivity (cell viability) of most cell lines” value [3] of the same compound?
Answer: sub-micromolar sensitivity

Question: Which Eradication of leukemia [4] does the source give for `CC[C@H](O)[C@@H](C)[C@H]1O[C@@H]1C[C@@](C)(O)/C=C/C=C(\C)[C@H]1OC(=O)C[C@H](O)CC[C@@](C)(O)[C@@H](OC(=O)N2CCN(C3CCCCCC3)CC2)/C=C/[C@@H]1C` [E7107] here?
Answer: complete eradication could not be achieved

Question: And the “Human leukemic cell burden, mutant versus WT” value [4]?
Answer: greater reduction in human leukemic cell burden

Question: And the “Sensitivity of spliceosomal-mutant AML over isogenic WT in vivo” value (spliceosomal-mutant AML)?
Answer: differentially sensitive

Question: And the “Splicing changes relative to DMSO treatment” value [2]?
Answer: increased cassette exon skipping and intron retention

Question: Which “Sensitivity of Srsf2-mutant cells versus wildtype” value [5] does the source give for `O=C(NC[C@H](O)CN1CCc2ccccc2C1)c1ccnc(NC2CCC2)c1` [GSK591] here?
Answer: more sensitive

Question: Which “Sensitivity of Srsf2-mutant cells versus wildtype” value [5] does the source give for `CC(C)Oc1ccc(-c2c[nH]cc2CN(C)CCN)cc1` [MS-023] here?
Answer: more sensitive

Question: Which results are given for `NS(=O)(=O)c1ccc(S(=O)(=O)Nc2cccc3c(Cl)c[nH]c23)cc1` [indisulam]?
Answer: Preferential sensitivity of spliceosomal mutant cells to growth inhibition over wild-type [1]: preferential effects; also recorded: preferentially sensitive; Sensitivity (cell viability) of most cell lines [3]: sub-micromolar sensitivity

Question: What does the source list for H3B-8800?
Answer: Preferential effects in spliceosomal-mutant disease [6]: preferential effects; Splicing fidelity [6]: dose-dependent reductions in splicing fidelity
